Legend:
[1] = Clinical bioavailability study of Fenbufen suppositories; type: in vivo; conditions: rectal
Protocol: Rectal administration of non-steroidal anti-inflammatory drugs can be clinically advantageous in some circumstances, in that it can prolong the effect of the drug. For example, when certain non-steroidal drugs are given rectally to a patient immediately prior to retiring for the night, sufficient blood levels of the drug are still available some 6-7 hours later to prevent morning stiffness. However, in the case of Fenbufen, the high level required for the nocturnal dose (450-600 mg) makes it difficult to deliver this drug successfully from the rectum. […] Accordingly, Fenbufen-containing suppository formulations for rectal administration have not been available, which is a disadvantage when Fenbufen would otherwise be the drug of choice for the patient.

[2] = Solubility of BPAA salts in water relative to the free acid; conditions: salt versus free acid

bioavailability of the active ingredient from suppositories [1] | increase of the solubility of (1,1′-biphenyl)-4-acetic acid in water [2] | Compound
low bioavailability |  | O=C(O)CCC(=O)c1ccc(-c2ccccc2)cc1 [Fenbufen, 4-(biphenyl-4-yl)-4-oxo-butyric acid]
 | 8-9 fold | O=C(O)Cc1ccc(-c2ccccc2)cc1 [sodium]

Source: patent publication EP0339176A1, “Suppository containing a non-steroidal anti-inflammatory medicament” (AMERICAN CYANAMID COMPANY, priority 1988, dated 1989)
